ChEMBL document CHEMBL1136785, “Design and structure-activity relationships of 2-alkyl-3-aminomethyl-6-(3-methoxyphenyl)-7-methyl-8-(2-fluorobenzyl)imidazolo[1,2-a]pyrimid-5-ones as potent GnRH receptor antagonists” (J Med Chem, 2003)

Each molecule was assayed against T1, Gonadotropin-releasing hormone receptor (Homo sapiens, UniProt P30968) (assay: Binding affinity against human gonadotropin-releasing hormone receptor).
T1 sequence (P30968 whole entry): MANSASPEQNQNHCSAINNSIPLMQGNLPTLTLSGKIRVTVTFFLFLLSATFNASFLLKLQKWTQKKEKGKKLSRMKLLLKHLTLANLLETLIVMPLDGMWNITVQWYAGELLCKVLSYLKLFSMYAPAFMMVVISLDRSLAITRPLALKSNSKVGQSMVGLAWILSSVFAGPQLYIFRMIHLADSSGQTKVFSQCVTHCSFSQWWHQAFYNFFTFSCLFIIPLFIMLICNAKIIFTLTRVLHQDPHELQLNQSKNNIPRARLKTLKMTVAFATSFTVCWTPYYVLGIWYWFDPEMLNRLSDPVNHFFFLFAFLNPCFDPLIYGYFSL

| SMILES | Ki |
| --- | --- |
| COc1cccc(-c2c(C)n(Cc3ccccc3F)c3nc(C(C)(C)C)c(CNCc4ccccc4)n3c2=O)c1 | 240 nM |
| COC(=O)C(C)(C)c1nc2n(Cc3ccccc3F)c(C)c(-c3cccc(OC)c3)c(=O)n2c1CN(C)CCc1ccccn1 | 1.2 nM |
| COc1cccc(-c2c(C)n(Cc3ccccc3F)c3nc(C(C)(C)C)c(CNCC4CCCCC4)n3c2=O)c1 | 430 nM |
| COC(=O)C(C)(C)c1nc2n(Cc3ccccc3F)c(C)c(-c3cccc(OC)c3)c(=O)n2c1CN(C)Cc1ccccn1 | 4.2 nM |
| COc1cccc(-c2c(C)n(Cc3ccccc3F)c3nc(C(C)(C)CO)c(CN(C)Cc4ccccn4)n3c2=O)c1 | 8 nM |
| COc1cccc(-c2c(C)n(Cc3ccccc3F)c3nc(C(C)(C)C)c(CN(C)CCc4ccccc4)n3c2=O)c1 | 190 nM |
| COC(=O)C(C)(C)c1nc2n(Cc3ccccc3F)c(C)c(-c3cccc(OC)c3)c(=O)n2c1CN1CCC(c2ccccc2)CC1 | 5100 nM |
| COCCN(C)Cc1c(C(C)(C)C(=O)OC)nc2n(Cc3ccccc3F)c(C)c(-c3cccc(OC)c3)c(=O)n12 | 300 nM |
| COc1cccc(-c2c(C)n(Cc3ccccc3F)c3nc(C(C)(C)C)c(CNCCc4ccccn4)n3c2=O)c1 | 160 nM |
| COC(=O)C(C)(C)c1nc2n(Cc3ccccc3F)c(C)c(-c3cccc(OC)c3)c(=O)n2c1CN(C)CCc1ccccc1 | 130 nM |
| COc1cccc(-c2c(C)n(Cc3ccccc3F)c3nc(C(C)(C)C)c(CN(C)Cc4ccccc4)n3c2=O)c1 | 72 nM |
| CCCCN(C)Cc1c(C(C)(C)C(=O)OC)nc2n(Cc3ccccc3F)c(C)c(-c3cccc(OC)c3)c(=O)n12 | 320 nM |
| COc1cccc(-c2c(C)n(Cc3ccccc3F)c3nc(C(C)(C)C)c(CN(C)CCc4ccccn4)n3c2=O)c1 | 5.2 nM |
| COC(=O)C(C)(C)c1nc2n(Cc3ccccc3F)c(C)c(-c3cccc(OC)c3)c(=O)n2c1CN(C)Cc1ccccc1 | 59 nM |
| COC(=O)C(C)(C)c1nc2n(Cc3ccccc3F)c(C)c(-c3cccc(OC)c3)c(=O)n2c1CN(C)Cc1ccccc1O | 490 nM |
| CCN(CCc1ccccn1)Cc1c(C(C)(C)C)nc2n(Cc3ccccc3F)c(C)c(-c3cccc(OC)c3)c(=O)n12 | 7.9 nM |

Second part, the molecule after the results:

| Ki | SMILES |
| --- | --- |
| 12000 nM | COc1cccc(-c2c(C)n(Cc3ccccc3F)c3nc4c(n3c2=O)CN(CCc2ccccn2)CC4(C)C)c1 |
| 430 nM | COCCN(C)Cc1c(C(C)(C)C)nc2n(Cc3ccccc3F)c(C)c(-c3cccc(OC)c3)c(=O)n12 |
| 6400 nM | COc1cccc(-c2c(C)n(Cc3ccccc3F)c3nc(C(C)(C)C)c(CNCC4CCCC4)n3c2=O)c1 |
| 9200 nM | COC(=O)C(C)(C)c1nc2n(Cc3ccccc3F)c(C)c(-c3cccc(OC)c3)c(=O)n2c1CN1CCc2ccccc2C1 |
| 350 nM | COc1cccc(-c2c(C)n(Cc3ccccc3F)c3nc(C(C)(C)CNCCc4ccccn4)cn3c2=O)c1 |
| 400 nM | COC(=O)C(C)(C)c1nc2n(Cc3ccccc3F)c(C)c(-c3cccc(OC)c3)c(=O)n2c1CN(C)Cc1cccnc1 |
| 260 nM | CCN(CC)CCN(C)Cc1c(C(C)(C)C)nc2n(Cc3ccccc3F)c(C)c(-c3cccc(OC)c3)c(=O)n12 |
| 1700 nM | COc1cccc(-c2c(C)n(Cc3ccccc3F)c3nc(C(C)(C)C)c(CN(C)C)n3c2=O)c1 |
| 11 nM | COc1cccc(-c2c(C)n(Cc3ccccc3F)c3nc(C(C)(C)C)c(CN(C)Cc4ccccn4)n3c2=O)c1 |
| 30 nM | COc1cccc(-c2c(C)n(Cc3ccccc3F)c3nc(C(C)(C)C)c(CNCc4ccccn4)n3c2=O)c1 |
| 7700 nM | COC(=O)C(C)(C)c1nc2n(Cc3ccccc3F)c(C)c(-c3cccc(OC)c3)c(=O)n2c1CN1CCN(C)CC1 |
